# Tests used:
# Mus musculus [1] = experiment: Ratio of treated to that of untreated tumor-bearing control animals at 7.5 mg/kg intraperitoneally in CD2F1 mice was determined; format: functional; conditions: route intraperitoneal
# Mus musculus [2] = experiment: Toxicity day survivors was determined by the ratio of animals survived to that of test animals at 7.5 mg/kg intraperitoneally in CD2F1 mice; 6/6; format: organism-based; set-up: dose 7.5 mg/kg, route intraperitoneal; conditions: in vivo, ip
# Mus musculus [3] = experiment: Toxicity day survivors was determined by the ratio of animals survived to that of test animals at 60 mg/kg intraperitoneally in CD2F1 mice; 4/6; format: organism-based; set-up: dose 60 mg/kg, route intraperitoneal; conditions: in vivo, ip
# Mus musculus [4] = experiment: Ratio of treated to that of untreated tumor-bearing control animals at 3.75 mg/kg intraperitoneally in CD2F1 mice was determined; format: functional; conditions: route intraperitoneal
# Mus musculus [5] = experiment: Toxicity day survivors was determined by the ratio of animals survived to that of test animals at 3.75 mg/kg intraperitoneally in CD2F1 mice; 6/6; format: organism-based; set-up: dose 3.75 mg/kg, route intraperitoneal; conditions: in vivo, ip
# Mus musculus [6] = experiment: Ratio of treated to that of untreated tumor-bearing control animals at 1.87 mg/kg intraperitoneally in CD2F1 mice was determined; format: functional; conditions: route intraperitoneal
# Mus musculus [7] = experiment: Net log cell kill was determined after injecting 7.5 mg/kg intraperitoneally in CD2F1 mice; format: functional; conditions: route intraperitoneal
# Mus musculus [8] = experiment: Body weight change of test animals to that of control was determined after injection at 3.75 mg/kg intraperitoneally in CD2F1 mice; format: functional; conditions: route intraperitoneal
# Mus musculus [9] = experiment: Body weight change of test animals to that of control was determined after injection at 7.5 mg/kg intraperitoneally in CD2F1 mice; format: functional; conditions: route intraperitoneal
# Mus musculus [10] = experiment: Body weight change of test animals to that of control was determined after injection at 1.87 mg/kg intraperitoneally in CD2F1 mice; format: functional; conditions: route intraperitoneal
# Mus musculus [11] = experiment: Toxicity day survivors was determined by the ratio of animals survived to that of test animals at 1.87 mg/kg intraperitoneally in CD2F1 mice; 6/6; format: organism-based; set-up: dose 1.87 mg/kg, route intraperitoneal; conditions: in vivo, ip
# Mus musculus [12] = experiment: Body weight change of test animals to that of control was determined after injection at 60 mg/kg intraperitoneally in CD2F1 mice; format: functional; conditions: route intraperitoneal
# Mus musculus [13] = experiment: Body weight change of test animals to that of control was determined after injection at 15 mg/kg intraperitoneally in CD2F1 mice; format: functional; conditions: route intraperitoneal
# Mus musculus [14] = experiment: Net log cell kill was determined after injecting 3.75 mg/kg intraperitoneally in CD2F1 mice; format: functional; conditions: route intraperitoneal
# Mus musculus [15] = experiment: Net log cell kill was determined after injecting 1.87 mg/kg intraperitoneally in CD2F1 mice; format: functional; conditions: route intraperitoneal
# Mus musculus [16] = experiment: Toxicity day survivors was determined by the ratio of animals survived to that of test animals at 15 mg/kg intraperitoneally in CD2F1 mice; 6/6; format: organism-based; set-up: dose 15 mg/kg, route intraperitoneal; conditions: in vivo, ip
# Mus musculus [17] = experiment: Net log cell kill was determined after injecting 15 mg/kg intraperitoneally in CD2F1 mice; format: functional; conditions: route intraperitoneal
# Mus musculus [18] = experiment: Ratio of treated to that of untreated tumor-bearing control animals at 15 mg/kg intraperitoneally in CD2F1 mice was determined; format: functional; conditions: route intraperitoneal
# Mus musculus [19] = experiment: Net log cell kill was determined after injecting 240 mg/kg intraperitoneally in CD2F1 mice; format: functional; conditions: route intraperitoneal
# Mus musculus [20] = experiment: Toxicity day survivors was determined by the ratio of animals survived to that of test animals at 60 mg/kg intraperitoneally in CD2F1 mice; 6/6; format: organism-based; set-up: dose 60 mg/kg, route intraperitoneal; conditions: in vivo, ip
# Mus musculus [21] = experiment: Body weight change of test animals to that of control was determined after injection at 240 mg/kg intraperitoneally in CD2F1 mice; format: functional; conditions: route intraperitoneal
# Mus musculus [22] = experiment: Body weight change of test animals to that of control was determined after injection at 30 mg/kg intraperitoneally in CD2F1 mice; format: functional; conditions: route intraperitoneal
# Mus musculus [23] = experiment: Toxicity day survivors was determined by the ratio of animals survived to that of test animals at 120 mg/kg intraperitoneally in CD2F1 mice; 6/6; format: organism-based; set-up: dose 120 mg/kg, route intraperitoneal; conditions: in vivo, ip
# Mus musculus [24] = experiment: Net log cell kill was determined after injecting 30 mg/kg intraperitoneally in CD2F1 mice; format: functional; conditions: route intraperitoneal
# Mus musculus [25] = experiment: Toxicity day survivors was determined by the ratio of animals survived to that of test animals at 30 mg/kg intraperitoneally in CD2F1 mice; 6/6; format: organism-based; set-up: dose 30 mg/kg, route intraperitoneal; conditions: in vivo, ip
# Mus musculus [26] = experiment: Net log cell kill was determined after injecting 60 mg/kg intraperitoneally in CD2F1 mice; format: functional; conditions: route intraperitoneal
# Mus musculus [27] = experiment: Body weight change of test animals to that of control was determined after injection at 120 mg/kg intraperitoneally in CD2F1 mice; format: functional; conditions: route intraperitoneal
# Mus musculus [28] = experiment: Ratio of treated to that of untreated tumor-bearing control animals at 240 mg/kg intraperitoneally in CD2F1 mice was determined; format: functional; conditions: route intraperitoneal
# Mus musculus [29] = experiment: Ratio of treated to that of untreated tumor-bearing control animals at 120 mg/kg intraperitoneally in CD2F1 mice was determined; format: functional; conditions: route intraperitoneal
# Mus musculus [30] = experiment: Toxicity day survivors was determined by the ratio of animals survived to that of test animals at 240 mg/kg intraperitoneally in CD2F1 mice; 6/6; format: organism-based; set-up: dose 240 mg/kg, route intraperitoneal; conditions: in vivo, ip
# Mus musculus [31] = experiment: Ratio of treated to that of untreated tumor-bearing control animals at 60 mg/kg intraperitoneally in CD2F1 mice was determined; format: functional; conditions: route intraperitoneal
# Mus musculus [32] = experiment: Net log cell kill was determined after injecting 120 mg/kg intraperitoneally in CD2F1 mice; format: functional; conditions: route intraperitoneal
# Mus musculus [33] = experiment: Ratio of treated to that of untreated tumor-bearing control animals at 30 mg/kg intraperitoneally in CD2F1 mice was determined; format: functional; conditions: route intraperitoneal
smiles,measurement,setting,value
CNC(=O)OCc1c(COC(=O)NC)c2n(c1C)-c1ccc(OC)cc1CCC2,T/C,Mus musculus [1],147%
same,TDS,Mus musculus [2],6
same,TDS,Mus musculus [3],4
same,T/C,Mus musculus [4],135%
same,TDS,Mus musculus [5],6
same,T/C,Mus musculus [6],125%
same,KE,Mus musculus [7],0.55
same,T-C,Mus musculus [8],-1.6 g
same,T-C,Mus musculus [9],-1.3 g
same,T-C,Mus musculus [10],-1 g
same,TDS,Mus musculus [11],6
same,T-C,Mus musculus [12],-2.8 g
same,T-C,Mus musculus [13],-1.2 g
same,KE,Mus musculus [14],-0.06
same,KE,Mus musculus [15],-0.74
same,TDS,Mus musculus [16],6
same,KE,Mus musculus [17],0.27
same,T/C,Mus musculus [18],144%
Cc1c(COC(=O)NC(C)C)c(COC(=O)NC(C)C)c2ccc3ccccc3n12,KE,Mus musculus [19],-0.5
same,TDS,Mus musculus [20],6
same,T-C,Mus musculus [21],-3.5 g
same,T-C,Mus musculus [22],-0.5 g
same,TDS,Mus musculus [23],6
same,KE,Mus musculus [24],-0.53
same,TDS,Mus musculus [25],6
same,KE,Mus musculus [26],0.47
same,T-C,Mus musculus [27],-1.8 g
same,T/C,Mus musculus [28],129%
same,T/C,Mus musculus [29],106%
same,TDS,Mus musculus [30],6
same,T-C,Mus musculus [12],-1.1 g
same,T/C,Mus musculus [31],139%
same,KE,Mus musculus [32],-1.5
same,T/C,Mus musculus [33],135%
